According to patent publication US20240115588A1, “USE OF PROTEASOME INHIBITORS IN THE TREATMENT OF CORONAVIRUS INFECTIONS” (priority 2021, published 2024):
pEC50: −log10 of the molar value.

Experiments:
[1] = target: β5 chymotrypsin-like subunit of the 20S proteolytic site of the proteasome (Homo sapiens, UniProt P28074); conditions: proteasome inhibitor dissociation; cited from earlier work
[2] = test system: 2019 Novel Coronavirus, Isolate USA-WA1/2020 (SARS-CoV-2); test: In vitro efficacy in Vero E6 cells, immunostaining assay (second testing series); assay type: cell-based; conditions: for pEC50: Severe acute respiratory syndrome coronavirus 2, Vero C1008
SARS-CoV-2 = conditions: cited from earlier work; for dose for complete prevention of CPE: Vero E6, shorter drug treatment time, bortezomib could not completely prevent CPE at these doses
[3] = test system: 2019 Novel Coronavirus, Isolate USA-WA1/2020 (SARS-CoV-2); test: In vitro efficacy in Calu-3 lung cells, immunostaining assay; assay type: cell-based
human plasma protein = conditions: IV administered bortezomib; average; cited from earlier work
Vero E6 cells [4] = conditions: cited from earlier work
Vero E6 cells [5] = conditions: ranking of drugs for expected efficacy against SARS-CoV-2; cited from earlier work
[6] = cited from earlier work
[7] = Vero E6, shorter treatment schedule

CC(C)C[C@H](NC(=O)[C@H](Cc1ccccc1)NC(=O)c1cnccn1)B(O)O [Bortezomib]
dissociation half-life [1]: 110 min | pEC50 ([2]; Vero E6 cells, MOI 0.001 TCID50/cell, immunostaining at 48±6 hours post inoculation, read-out: EC50): 8.00 | EC100 ([2]; Vero E6 cells, whether EC100 was achieved): Achieved | dose for complete prevention of CPE (SARS-CoV-2): > 30 µM | doses at which inhibition of virus-induced cytopathic effects was observed (SARS-CoV-2; [7]): > 30 µM | concentration inhibiting virus-induced cytopathic effects (CPE) (SARS-CoV-2; Vero E6 cells infected with SARS-CoV-2): 0.05 µM | pEC50 ([3]; Calu-3 lung cells, MOI 0.001 TCID50/cell, immunostaining at 48±6 hours post inoculation, preliminary results, read-out: EC50): 8.16 | EC100 ([3]; Calu-3 lung cells, whether EC100 was achieved): Achieved | pEC50 ([3]; Severe acute respiratory syndrome coronavirus 2, Calu-3, Calu-3 lung cells, MOI 0.001 TCID50/cell, immunostaining at 48±6 hours post inoculation, preliminary results, read-out: EC50): 8.11 | in vitro binding to human plasma protein (human plasma protein): 83% | doses at which cytotoxicity was observed (Vero E6 cells [4]; [7]): > 30 µM | concentration at which cytotoxicity was observed (Vero E6 cells [4]; Vero E6 cells): 2 nM | category in algorithmic prediction study (Vero E6 cells [5]): cytotoxic drug | bioavailability ([6]; IV administration or subcutaneous injection): 100% | time to peak plasma levels ([6]; after IV administration): approximately 5 minutes

CC(C)C[C@H](NC(=O)CNC(=O)c1cc(Cl)ccc1Cl)B(O)O [Ixazomib]
dissociation half-life [1]: 18 min

CCC(CC)COC(=O)[C@H](C)N[P@](=O)(OC[C@H]1O[C@@](C#N)(c2ccc3c(N)ncnn23)[C@H](O)[C@@H]1O)Oc1ccccc1 [Remdesivir]
pEC50 [2]: 5.94 | pEC50 ([3]; Severe acute respiratory syndrome coronavirus 2, Calu-3): 6.60

CCN(CC)CCCC(C)Nc1ccnc2cc(Cl)ccc12 (stereo not shown) [chloroquine]
dose for complete prevention of CPE (SARS-CoV-2): 15 µM
